Laboratory results: ChEMBL document CHEMBL1128017, “Antineoplastic agents 323. Isolation and structure of phakellistatin 6 from a Chuuk archipelago marine sponge” (1994)
Converted amounts (≈) assume the structure as drawn. Where a SMILES comes first, the peptide text is derived from it.

Tests used:
Type in all cases: functional
[1] = test system: KM-20L2; test: Compound was tested for inhibition of KM20L2 human colon cancer cell line
[2] = test system: NCI-H460; test: Compound was tested for inhibition of NCI-H460 human lung cancer cell line
[3] = test system: SK-MEL-5; test: Compound was tested for inhibition of SK-MEL-5 human melanoma cancer cell line
[4] = test system: A498; test: Compound was tested for inhibition of A498 human renal cancer cell line
[5] = test system: OVCAR-3; test: Compound was tested for inhibition of OVCAR-3 human ovarian cancer cell line
[6] = test system: SF-295; test: Compound was tested for inhibition of SF-295 human CNS cancer cell line
[7] = test system: P388; test: Compound was tested for inhibition of murine P388 lymphocytic leukemia cancer cell line; settings: Mus musculus, read-out: ED50 (the source's name)

- GI50 [2]: 0.019 µg/mL (≈ 0.0223 µM)
- GI50 [3]: 0.032 µg/mL (≈ 0.0376 µM)
- GI50 [5]: 0.025 µg/mL (≈ 0.0294 µM)
- EC50 [7]: 0.185 µg/mL (≈ 0.217 µM)
Compound: CC[C@H](C)[C@@H]1NC(=O)[C@@H]2CCCN2C(=O)[C@H](CC(C)C)NC(=O)[C@H](Cc2c[nH]c3ccccc23)NC(=O)[C@@H]2CCCN2C(=O)[C@H](Cc2ccccc2)NC(=O)[C@@H]2CCCN2C1=O (cyclo(FPWLPIP))
- GI50 [1]: 0.021 µg/mL (≈ 0.0247 µM)
- GI50 [4]: 0.078 µg/mL (≈ 0.0917 µM)
- GI50 [6]: 0.041 µg/mL (≈ 0.0482 µM)
